Tests used:
cGAS-STING pathway [1] = experiment: Western blot of p-STING, p-TBK1 and p-IRF3 in B16F10 cells; format: cell-based; conditions: 40 µM, n = 3
Experimental: (§1) B16F10 cells were seeded in a 12-well plate at a density of 5×10^4 cells per well and […]
(§2) with PBS, the cells were collected by centrifugation. Cytosolic mtDNA was […] using a Cell Mitochondria Isolation Kit (C3601, Beyotime, China), and the DNA was then extracted with a TIANamp Genomic DNA kit (DP304, Tiangen Biotech, China) following the manufacturer’s protocol. The mtDNA D-Loop primers were synthesized by GenePharma Biotech (detailed sequences in Table S3, Supporting Information), and then quantified with Multiplex PCR Kit (PM101, Novoprotein , Shanghai, China) using Quantitative Real-Time PCR Detection System (Bio-Rad, CFX96, USA).
(§3) Caspase-9 and Caspase-3 Activity Assay
(§4) The B16F10 cells were seeded into a 6-well plate at the density of 2×10^5 cells per […]
(§5) cells were rinsed with PBS for three times and then treated with lysis buffer solution in ice bath for 1 h. Cell lysates were centrifuged at 12000 rpm for 5 min at 4 °C, and the supernatant was collected. The supernatant was incubated with caspase-9 or caspase-3 substrate at 37 °C in dark for 12 h. The activities of caspase-9 and caspase-3 were […]
(§6) Evaluation of cGAS-STING Pathway Activation
(§7) Western bolt was employed to evaluate the MAPN-mediated activation of cGAS-STING pathway. Briefly, B16F10 cells were first seeded into 24-well plates at 2×104 […]
(§8) culture medium with or without H2O2 (100 μM). […]

B16F10 cells [2] = experiment: mtDNA leakage assay, immunofluorescence of dsDNA Marker and anti-TOMM20 (CLSM); format: cell-based; conditions: KLA-treated B16F10 cells, n = 3
Experimental: The endosomal escape ability of MAPN was study by analyzing the colocolization of endosomes and KLA after internalizing into cells. Briefly, B16F10 cells were seeded […]
overnight for cell attachment. KLA was labeled with FITC. The cells were incubated […]
H2O2 (100 μM) for 4 h. After 1 h, 3 h, and 6 h incubation, endosomes were stained with LysoTracker probe (red) according to manufacture’s instruction. The cells were then […]
at room temperature, and counterstained with DAPI for the easy observation of cell […]
In Vitro PD-1/PD-L1 Pathway Blockade
MAPN-mediated PD-1/PD-L1 pathway blockade was evaluated with anti-PD-L1 (sc-518027, Santa Cruz, USA) staining. Briefly, B16F10 cells were seeded at a density […]
at room temperature, and then stained with Alexa Fluor 594 (red) labeled anti -PD-L1 […]
B16F10 cells were seeded at a density of 1×10^4 cells per well in 35 mm confocal dish (Ф =15 mm) and incubated overnight for cell attachment. The cells were incubated […]
without H2O2 (100 μM) for 24 h. After washing with PBS, the cells were permeabilized, and incubated with Anti-TOMM20 antibodies (GB111481, Servicebio, China) and dsDNA Marker (sc-58749, Santa Cruz, USA) at 4 °C overnight, and then incubated with secondary antibodies for 2 h and counterstained with DAPI. All the cells were observed using a CLSM (Zeiss, Germany).
The qPCR Quantification of Cytosolic mtDNA

B16F10 cells [3] = experiment: qRT-PCR quantification of cytosolic mtDNA; format: cell-based; conditions: n = 3
Experimental: as §1, §2, §3, §4, §5, §6, §7, §8

[4] = tested on: B16F10 tumor-bearing C57BL/6 mouse model; experiment: Anti-tumor immune responses after i.t. or i.v. injection of AMPs; format: in vivo, C57BL/6 mice; conditions: 7.5 mg kg^-1; for DCs maturation (CD80+ CD86+ CD11c+ cells) in lymph nodes: representative flow cytometric plot
Experimental: Next, the B16F10 tumor‐bearing C57BL/6 mouse model was established to investigate whether KLA can initiate efficient anti‐tumor immune responses by activating the cGAS‐STING pathway. The KLA was administrated either through intratumoral (i.t.) or intravenous (i.v.) injection at the dose of 7.5 mg kg^−1, 17BIPHE2 and CGA‐N12 were employed as comparative groups.

cGAS-STING pathway [5] = experiment: Secretion levels of cGAMP and IFN-β in B16F10 cells; format: cell-based; conditions: KLA-treated B16F10 cells; n = 3

With “KLAKLAK2 [model antimicrobial peptide that promotes mtDNA leakage by changing mitochondrial inner membrane permeability]” the “phosphorylation levels of STING, TBK1, and IRF3 proteins” value (cGAS-STING pathway [1]) was “remarkably increased”, the “Pearson correlation coefficient of dsDNA and mitochondria (TOMM20)” value (B16F10 cells [2]) was 0.464 and the “cytosolic mtDNA level, fold over 17BIPHE2-treated cells” value (B16F10 cells [3]) was 2.41 fold. For the same substance, the “cytosolic mtDNA level, fold over CGA-N12-treated cells” value (B16F10 cells [3]) was 1.87 fold, the “DCs maturation, fold over PBS treatment” value ([4]; i.t. injection, n = 6) was 2.53 fold and the “pro-inflammatory cytokines (IFN-β, IFN-γ, TNF-α, IL-6, IL-12) in tumor tissues compared with other groups” value ([4]; i.t. injection, n = 6) was “significantly higher levels”. The “tumor-infiltrating CD8+ T cells, fold over PBS treatment” value ([4]; i.t. injection, n = 6) was 2.36 fold, the “DCs maturation (CD80+ CD86+ CD11c+ cells) in lymph nodes” value ([4]; i.t. injection) was 31.4% and the “initiation of systemic anti-tumor immune responses” value ([4]; i.v. injection) was “weak effect”. For the same substance, the “DCs maturation (CD80+ CD86+ CD11c+ cells) in lymph nodes” value ([4]; i.v. injection) was 17.9%, the “IFN-β level, fold over PBS-treated cells” value (cGAS-STING pathway [5]) was 2.03 fold and the “cGAMP level, fold over PBS-treated cells” value (cGAS-STING pathway [5]) was 1.85 fold.

Source: article PMC11022698, “Precisely Activating cGAS‐STING Pathway with a Novel Peptide‐Based Nanoagonist to Potentiate Immune Checkpoint Blockade Cancer Immunotherapy” (Advanced Science, 2024)
